Among the data in US9243002B2, “Tetracyclic heterocycle compounds and methods of use thereof for the treatment of hepatitis C” (priority 2013, dated 2016) are IC50 values, retold here.

One assay concerns HCV genotype 1a replicon. The assay is described as follows: HCV replicon assay, genotype 1a (cell ELISA for NS3/4A). The assay is classed as cell-based, hepatitis C virus. Put shortly:
(§1)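 Stable replicon cells plated with a compound dilution series without G418 and incubated 96 h, then lysed. Replicon RNA measured indirectly by cell ELISA with an NS3/4A-specific antibody. IC50 calculated relative to DMSO control by four-parameter fit.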

A further assay has as its system HCV genotype 1b replicon. The assay is described as follows: HCV replicon assay, genotype 1b (cell ELISA for NS3/4A). The assay is classed as cell-based, hepatitis C virus. Put shortly:
as §1
Background: In antiviral work, replicon cells carry a viral genome segment that copies itself.

Like-named read-outs stand apart in the source and are kept apart here.

In the case of `CNC(=O)c1c(-c2ccc(F)cc2C#N)oc2cc(N(C)S(C)(=O)=O)c(-c3ccc4c(n3)-c3cc5c(F)cccc5n3CC4)cc12` [Example 13], the IC50 was determined as 17.3 nM in the assay on HCV genotype 1a replicon (Hepatitis C virus, 96 h, read-out: 1a IC50 (nM), genotype 1a replicon cells, 96 hours incubation, NS3/4A ELISA) and 16.5 nM in the assay on HCV genotype 1b replicon (Hepatitis C virus, 96 h, read-out: 1b IC50 (nM), genotype 1b replicon cells, 96 hours incubation, NS3/4A ELISA).
Consider `CNC(=O)c1c(-c2ccc(C)nc2)oc2cc(N(C)S(C)(=O)=O)c(-c3ccc4c(n3)-c3cc5c(F)cccc5n3C(CCN3CC(F)C3)C4)cc12` (stereo not shown) [Example 68], for which the IC50 amounted to 70.9 nM in the assay with HCV genotype 1a replicon (read-out: 1a IC50, genotype 1a replicon cells, 96 hours incubation, NS3/4A ELISA) and 60.6 nM in the assay on HCV genotype 1b replicon (read-out: 1b IC50, genotype 1b replicon cells, 96 hours incubation, NS3/4A ELISA).
